# Experimental data as given in patent US9446061B2, “Composition containing antibiotics and lysophosphatidylcholine for boosting immunity or treatment of bacterial infections” (priority 2011, dated 2016).
# Marks after values point to notes of the source that are not given here.
# What was measured:
# [1] = tested on: CPA-CLP sepsis mouse model; assay: Combination effects of LPC and antibiotics (colistin, tobramycin, fusidin) in CPA-CLP sepsis mouse model (SEP013); single i.v. 6 hrs after CLP; assay type: in vivo, ICR mice; details: mpk: LPC 5, DW286aa 5, Colistin 5, Tobra 4, Fusidin 80, LPC + Colistin 5 + 5, LPC + Tobra 5 + 4, LPC + Fusidin 5 + 80
# Description: (§1) CPA is well known as an immunosuppressive agent. […] Then, the abdomen was closed following the general procedure.
# (§2) Then, body weight and mortality changes were observed.
# [2] = Body weight of CPA-CLP mice (Example 9); details: LPC 1, DW286 0.5, Mix 0.75 mg/kg
# Procedure: In CPA-CLP model, body weight and mortalities were measured once a day for 5 days with automatic electronic balances (Sartorius Co., Ltd., USA), once a day for 2 days in CPA-treated model. All animals were overnight fasted at CPA dosing, CLP or initial dosing to reduce differences from feeding. In addition, body weight gains were calculated as follows:
# CPA-CLP Model: Body weight at sacrifice—at CLP(5 days)
# Then, mortalities, changes in thymus and spleen weights, changes in white blood cell (WBC) number, and changes in thymic and splenic CD3+, CD4+, CD8+, and TNF-α+ cell numbers, were evaluated together with changes in bone marrow polychromatic erythrocytes contain micronuclei (MNPCE) number.
# (§7) Appropriate doses of candidate materials were dissolved in 5% human serum albumin, and subcutaneously dosed at 10 ml/kg (of body weight), 4 times 12-hr intervals from 6 hrs after CLP or 24 hrs after last CPA-dosing, respectively. In the INTACT, CPA, or CPA-CLP control groups, an equal volume of 5% human serum albumin was dosed by the same procedure.
# [3] = tested on: thymic CD3+, CD4+, CD8+ and TNF-α+ cells; assay: Immunohistochemistry of thymus (cortex and medulla) in CPA-treated mice; assay type: in vivo, ICR mice
# Procedure: (§3) After deparraffinized, CD3 epitope retrievals were conducted in 10 mM Tris-1 mM EDTA Buffer (pH 9.0), CD4 and CD8 in 1 mM EDTA Buffer (pH 8.0), and TNF-α in 10 mM Citrate Buffer (pH 6.0) as previous methods. Primary anti-antibodies used in the invention were as following table.
# (§4) The water bath with a staining dish, containing a buffer, was preheated until the temperature reached 95-100. The staining dish was placed at room temperature and the slides were cooled for 20 minutes. After epitope retrivals, sections were immunostained as following steps
# (§5) First, the sections were incubated with methanol and 0.3% H2O2 for 30 min to block endogenous peroxidase activity at room temperature, and then rinsed three times in 0.01M phosphate buffered saline (PBS; pH 7.2) for 3 times. Then, the sections were incubated with the normal horse serum blocking solution (Vector Lab. Inc., CA, USA., dilution 1:100) for 1 hr at room temperature in a humidity chamber, to block non-specific binding of immunoglobulin, and then rinsed three times in 0.01M PBS. The sections were incubated with four types of primary antisera for 12 hrs at 4 in a humidity chamber, and then rinsed three times in 0.01M PBS. The sections were incubated with universal biotinylated secondary antibody for 1 hr at room temperature in a humidity chamber, and then rinsed three times in 0.01M PBS. The sections were incubated with ABC reagents (Vectastain Elite ABC Kit, Vector Lab. Inc., CA, USA. Dilution 1:50) for 1 hr at room temperature in a humidity chamber, and then rinsed three times in 0.01M PBS. The sections were incubated in the peroxidase substrate kit (Vector Lab. Inc., CA) for 30 seconds at room temperature, and then rinsed three times in 0.01M PBS. The sections were counterstained with the Mayer's hematoxylin solution, and then rinsed in running tap water for 30 minutes. The sections were dehydrated through 95% ethanol for 2 min and 100% ethanol for […], and then rinsed in xylene for 2 hrs. After that, the sections were observed using a cover slip with permanent mounting medium under the light microscope (Zeiss, Germany).
# (§6) Histomorphometry—Among 1000 splenic or thymic cells, the numbers (N) of immunoreactive cells (CD3+, CD4+, CD8+, and TNF-α+) were observed as N/1000 splenocytes or thymocytes using automated image analysis. In thymus, the counts were conducted in the both cortex and medulla separately.
# [4] = tested on: splenic CD3+, CD4+, CD8+ and TNF-α+ cells; assay: Immunohistochemistry of spleen in CPA-treated mice; assay type: in vivo, ICR mice
# Procedure: as §3, §4, §5, §6
# [5] = tested on: bone marrow polychromatic erythrocytes; assay: Bone marrow MNPCE and PCE/(PCE+NCE) in CPA-treated mice; details: LPC 1, DW286 0.5, Mix 0.75 mg/kg
# Procedure: In Intact control animals, equal volume of saline was only dosed instead of CPA with same methods.
# In brief, bone marrow cells were collected from aforementioned femur in 3 ml of inactivated fetal bovine serum (GIBCO BRL, USA), centrifuged, and smeared on slide. Preparations were dried, and fixed by submerging in absolute methanol (for 10˜20 min). Fixed slides were stained as follow:
# Slides were randomly coded and examined under×1000 magnification by two different experts. Small round or oval shaped bodies, size of which ranging about ⅕ to 1/20 of diameter of PCE, were counted as micronuclei. Attention was given to discriminate micronuclei from artifacts. Results were expressed as the number of MNPCEs in 1000 PCEs. Mean number of MNPCE±S.D. was calculated for each treatment group.
# as §7
# [6] = tested on: CPA-CLP sepsis mouse model; assay: Effects of LPC, LPC isomers, Xigris and DW286aa on mortalities/survivabilities in CPA-CLP sepsis mouse model (SEP009); single i.v. 6 hrs after CLP; assay type: in vivo; details: LPC, LPC18:0, LPC18:1, LPA 5 mpk, Xigris 0.4 mpk, DW286aa 10 mpk
# Procedure: as §1, §2
# In the Sham and CLP control groups, 10 ml/kg of only sterile physiological saline was single intravenously dosed.
# [7] = LPC 1, DW286 0.5, Mix 0.75 mg/kg
# [8] = thymus cortex, CPA-treated mice, Mean ± S.D., n = 9
# [9] = thymus medulla, CPA-treated mice, Mean ± S.D., n = 9
# [10] = spleen, CPA-treated mice, Mean ± S.D., n = 9
substance,measurement,setting,value
Lysophosphatidylcholine [LPC],Mortalities,[1]; 1st CPA treat,0
same,Survivalities,[1]; 1st CPA treat,100%
same,Mortalities,[1]; 2nd CPA treat,0
same,Survivalities,[1]; 2nd CPA treat,100%
same,Mortalities,[1]; At CLP (day 0),0
same,Survivalities,[1]; At CLP (day 0),100%
same,Mortalities,[1]; Day 1,2
same,Survivalities,[1]; Day 1,80%
same,Mortalities,[1]; Day 2,5
same,Survivalities,[1]; Day 2,30%
same,Mortalities,[1]; Day 3,2
same,Survivalities,[1]; Day 3,10%
same,Mortalities,[1]; Total,9
same,Survivalities,[1]; Total,10%
same,Body weight,[2]; 1 day after CLP,30.10 ± 1.23 g
same,Body weight,[2]; 2 days after CLP,29.47 ± 1.46 g
same,Body weight,[2]; 3 days after CLP,31.40 ± 0.28 g
same,Body weight,[2]; At CLP (overnight fasted),32.98 ± 1.65 g
same,Body weight,[2]; At First CPA dosing (overnight fasted),34.53 ± 1.24 g
same,"numbers of thymic cortex CD3+ cells, change compared to CPA control",[3]; [7],328.69%
same,"numbers of thymic cortex CD4+ cells, change compared to CPA control",[3]; [7],408.70%
same,"numbers of thymic cortex CD8+ cells, change compared to CPA control",[3]; [7],11.11%
same,"numbers of thymic medulla CD3+ cells, change compared to CPA control",[3]; [7],12466.67%
same,"numbers of thymic medulla CD4+ cells, change compared to CPA control",[3]; [7],−9.09%
same,"numbers of thymic medulla CD8+ cells, change compared to CPA control",[3]; [7],−5.56%
same,"thymic cortex TNF-α+ cells, change compared to CPA control",[3]; [7],65.22%
same,"thymic medulla TNF-α+ cells, change compared to CPA control",[3]; [7],133.33%
same,"CD3+ cells, Thymus: Cortex (IHC-Histomorphometry)",[3]; [8],780.22 ± 85.78 N/1000 splenocytes or thymocytes
same,"CD4+ cells, Thymus: Cortex (IHC-Histomorphometry)",[3]; [8],"13.00 ± 2.45*^,# N/1000 splenocytes or thymocytes"
same,"CD8+ cells, Thymus: Cortex (IHC-Histomorphometry)",[3]; [8],3.33 ± 1.22 N/1000 splenocytes or thymocytes
same,"TNF-α+ cells, Thymus: Cortex (IHC-Histomorphometry)",[3]; [8],4.22 ± 1.20 N/1000 splenocytes or thymocytes
same,"CD3+ cells, Thymus: Medulla (IHC-Histomorphometry)",[3]; [9],"41.89 ± 10.23*^,# N/1000 splenocytes or thymocytes"
same,"CD4+ cells, Thymus: Medulla (IHC-Histomorphometry)",[3]; [9],2.22 ± 0.97 N/1000 splenocytes or thymocytes
same,"CD8+ cells, Thymus: Medulla (IHC-Histomorphometry)",[3]; [9],1.89 ± 0.60 N/1000 splenocytes or thymocytes
same,"TNF-α+ cells, Thymus: Medulla (IHC-Histomorphometry)",[3]; [9],1.33 ± 1.00 N/1000 splenocytes or thymocytes
same,"numbers of splenic CD3+ cells, change compared to CPA control",[4]; [7],18.29%
same,"numbers of splenic CD4+ cells, change compared to CPA control",[4]; [7],136.54%
same,"numbers of splenic CD8+ cells, change compared to CPA control",[4]; [7],72.89%
same,"splenic TNF-α+ cells, change compared to CPA control",[4]; [7],36.75%
same,"CD3+ cells, Spleen (IHC-Histomorphometry)",[4]; [10],"76.89 ± 6.23*^,## N/1000 splenocytes or thymocytes"
same,"CD4+ cells, Spleen (IHC-Histomorphometry)",[4]; [10],"109.33 ± 20.77*^,# N/1000 splenocytes or thymocytes"
same,"CD8+ cells, Spleen (IHC-Histomorphometry)",[4]; [10],"88.56 ± 11.18*^,# N/1000 splenocytes or thymocytes"
same,"TNF-α+ cells, Spleen (IHC-Histomorphometry)",[4]; [10],"63.67 ± 9.10*^,# N/1000 splenocytes or thymocytes"
same,"MNPCE numbers, change compared to CPA control",[5],−14.34%
same,"PCE/(PCE+NCE), change compared to CPA control",[5],−12.98%
same,NCE,[5]; among 500 erythrocytes,377.11 ± 22.32
same,PCE,[5]; among 500 erythrocytes,122.89 ± 22.32
same,PCE/(NCE + PCE),[5]; among 500 erythrocytes,0.25 ± 0.04
same,% MNPCE,[5]; among 1000 PCEs,2.46 ± 0.75 %
same,Mortalities,[6]; 1st CPA treat,0
same,survivabilities,[6]; 1st CPA treat,100%
same,Mortalities,[6]; 2nd CPA treat,0
same,survivabilities,[6]; 2nd CPA treat,100%
same,Mortalities,[6]; At CLP (day 0),0
same,survivabilities,[6]; At CLP (day 0),100%
same,Mortalities,[6]; Day 1,1
same,survivabilities,[6]; Day 1,90%
same,Mortalities,[6]; Day 2,3
same,survivabilities,[6]; Day 2,60%
same,Mortalities,[6]; Day 3,1
same,survivabilities,[6]; Day 3,50%
same,Mortalities,[6]; Day 4,1
same,survivabilities,[6]; Day 4,40%
same,Mortalities,[6]; Day 5,2
same,survivabilities,[6]; Day 5,20%
same,Mortalities,[6]; Day 6,0
same,survivabilities,[6]; Day 6,20%
same,Mortalities,[6]; Day 7,1
same,survivabilities,[6]; Day 7,10%
same,Mortalities,[6]; Day 8,1
same,survivabilities,[6]; Day 8,0%
same,Mortalities,[6]; Day 9,0
same,survivabilities,[6]; Day 9,0%
same,Mortalities,[6]; Day 10,0
same,survivabilities,[6]; Day 10,0%
same,Mortalities,[6]; Total,10
same,survivabilities,[6]; Total,0%
